From ChEMBL document CHEMBL4680343, “Nosiheptide analogues as potential antibacterial agents via dehydroalanine region modifications: Semi-synthesis, antimicrobial activity and molecular docking study” (2021)

Columns and labels:
Assay type in all cases: functional
Details in all cases: time 16-20 hrs
[1] = system: Staphylococcus aureus; assay: Antimicrobial activity against methicillin-resistant Staphylococcus aureus assessed as inhibition of microbial growth incubated for 16 to 20 hrs under ambient air condition by broth microdilution assay
[2] = system: Staphylococcus aureus; assay: Antimicrobial activity against Staphylococcus aureus ATCC 25923 assessed as inhibition of microbial growth incubated for 16 to 20 hrs under ambient air condition by broth microdilution assay
[3] = system: Enterococcus faecium; assay: Antimicrobial activity against vancomycin-resistant Enterococcus faecium assessed as inhibition of microbial growth incubated for 16 to 20 hrs under ambient air condition by broth microdilution assay

| Compound | MIC [1] [µg/mL] | MIC [2] [µg/mL] | MIC [3] [µg/mL] |
| --- | --- | --- | --- |
| C/C=C1\NC(=O)[C@H]([C@@H](C)O)NC(=O)c2csc(n2)-c2cc(O)c(-c3nc(C(=O)NC(CNc4ccccc4I)C(N)=O)cs3)nc2-c2csc(n2)[C@@H]2CSC(=O)c3[nH]c4cccc(c4c3C)COC(=O)[C@H](O)C[C@H](NC(=O)c3csc1n3)c1nc(cs1)C(=O)N2 (stereo partly drawn) | 0.0078 | 0.062 | 0.015 |
| C/C=C1\NC(=O)[C@H]([C@@H](C)O)NC(=O)c2csc(n2)-c2cc(O)c(-c3nc(C(=O)NC(CNc4ccccc4C)C(N)=O)cs3)nc2-c2csc(n2)[C@@H]2CSC(=O)c3[nH]c4cccc(c4c3C)COC(=O)[C@H](O)C[C@H](NC(=O)c3csc1n3)c1nc(cs1)C(=O)N2 (stereo partly drawn) | < 0.0039 | 0.015 | 0.015 |
| C/C=C1\NC(=O)[C@H]([C@@H](C)O)NC(=O)c2csc(n2)-c2cc(O)c(-c3nc(C(=O)NC(CNc4ccc(F)cc4)C(N)=O)cs3)nc2-c2csc(n2)[C@@H]2CSC(=O)c3[nH]c4cccc(c4c3C)COC(=O)[C@H](O)C[C@H](NC(=O)c3csc1n3)c1nc(cs1)C(=O)N2 (stereo partly drawn) | 0.015 | 0.031 | 0.031 |
| C/C=C1\NC(=O)[C@H]([C@@H](C)O)NC(=O)c2csc(n2)-c2cc(O)c(-c3nc(C(=O)NC(CNc4cccc(C)c4)C(N)=O)cs3)nc2-c2csc(n2)[C@@H]2CSC(=O)c3[nH]c4cccc(c4c3C)COC(=O)[C@H](O)C[C@H](NC(=O)c3csc1n3)c1nc(cs1)C(=O)N2 (stereo partly drawn) | < 0.0039 | 0.031 | 0.015 |
| C/C=C1\NC(=O)[C@H]([C@@H](C)O)NC(=O)c2csc(n2)-c2cc(O)c(-c3nc(C(=O)NC(CNc4ccc(Br)cc4)C(N)=O)cs3)nc2-c2csc(n2)[C@@H]2CSC(=O)c3[nH]c4cccc(c4c3C)COC(=O)[C@H](O)C[C@H](NC(=O)c3csc1n3)c1nc(cs1)C(=O)N2 (stereo partly drawn) | 0.015 | 0.062 | 0.031 |
| C/C=C1\NC(=O)[C@H]([C@@H](C)O)NC(=O)c2csc(n2)-c2cc(O)c(-c3nc(C(=O)NC(CNc4cccc(F)c4)C(N)=O)cs3)nc2-c2csc(n2)[C@@H]2CSC(=O)c3[nH]c4cccc(c4c3C)COC(=O)[C@H](O)C[C@H](NC(=O)c3csc1n3)c1nc(cs1)C(=O)N2 (stereo partly drawn) | 0.015 | 0.031 | 0.031 |
| C/C=C1\NC(=O)[C@H]([C@@H](C)O)NC(=O)c2csc(n2)-c2cc(O)c(-c3nc(C(=O)NC(CNc4cccc(I)c4)C(N)=O)cs3)nc2-c2csc(n2)[C@@H]2CSC(=O)c3[nH]c4cccc(c4c3C)COC(=O)[C@H](O)C[C@H](NC(=O)c3csc1n3)c1nc(cs1)C(=O)N2 (stereo partly drawn) | < 0.0039 | 0.031 | 0.0078 |
| C=C(NC(=O)c1csc(-c2nc3c(cc2O)-c2nc(cs2)C(=O)N[C@@H]([C@@H](C)O)C(=O)N/C(=C\C)c2nc(cs2)C(=O)N[C@H]2C[C@@H](O)C(=O)OCc4cccc5[nH]c(c(C)c45)C(=O)SC[C@H](NC(=O)c4csc2n4)c2nc-3cs2)n1)C(N)=O | 0.0078 | 0.062 | 0.031 |
| C/C=C1\NC(=O)[C@H]([C@@H](C)O)NC(=O)c2csc(n2)-c2cc(O)c(-c3nc(C(=O)NC(CNc4cccc(C(F)(F)F)c4)C(N)=O)cs3)nc2-c2csc(n2)[C@@H]2CSC(=O)c3[nH]c4cccc(c4c3C)COC(=O)[C@H](O)C[C@H](NC(=O)c3csc1n3)c1nc(cs1)C(=O)N2 (stereo partly drawn) | 0.0078 | 0.062 | 0.031 |
| C/C=C1\NC(=O)[C@H]([C@@H](C)O)NC(=O)c2csc(n2)-c2cc(O)c(-c3nc(C(=O)NC(CNc4ccccc4Br)C(N)=O)cs3)nc2-c2csc(n2)[C@@H]2CSC(=O)c3[nH]c4cccc(c4c3C)COC(=O)[C@H](O)C[C@H](NC(=O)c3csc1n3)c1nc(cs1)C(=O)N2 (stereo partly drawn) | < 0.0039 | 0.015 | 0.015 |
| C/C=C1\NC(=O)[C@H]([C@@H](C)O)NC(=O)c2csc(n2)-c2cc(O)c(-c3nc(C(=O)NC(CNc4ccccc4F)C(N)=O)cs3)nc2-c2csc(n2)[C@@H]2CSC(=O)c3[nH]c4cccc(c4c3C)COC(=O)[C@H](O)C[C@H](NC(=O)c3csc1n3)c1nc(cs1)C(=O)N2 (stereo partly drawn) | < 0.0039 | 0.062 | 0.015 |
| C/C=C1\NC(=O)[C@H]([C@@H](C)O)NC(=O)c2csc(n2)-c2cc(O)c(-c3nc(C(=O)NC(CNc4cccc(Br)c4)C(N)=O)cs3)nc2-c2csc(n2)[C@@H]2CSC(=O)c3[nH]c4cccc(c4c3C)COC(=O)[C@H](O)C[C@H](NC(=O)c3csc1n3)c1nc(cs1)C(=O)N2 (stereo partly drawn) | 0.0078 | 0.062 | 0.031 |
| C/C=C1\NC(=O)[C@H]([C@@H](C)O)NC(=O)c2csc(n2)-c2cc(O)c(-c3nc(C(=O)NC(CNc4ccccc4C(F)(F)F)C(N)=O)cs3)nc2-c2csc(n2)[C@@H]2CSC(=O)c3[nH]c4cccc(c4c3C)COC(=O)[C@H](O)C[C@H](NC(=O)c3csc1n3)c1nc(cs1)C(=O)N2 (stereo partly drawn) | < 0.0039 | 0.031 | 0.015 |
| C/C=C1\NC(=O)[C@H]([C@@H](C)O)NC(=O)c2csc(n2)-c2cc(O)c(-c3nc(C(=O)NC(CNc4ccc(C(F)(F)F)cc4)C(N)=O)cs3)nc2-c2csc(n2)[C@@H]2CSC(=O)c3[nH]c4cccc(c4c3C)COC(=O)[C@H](O)C[C@H](NC(=O)c3csc1n3)c1nc(cs1)C(=O)N2 (stereo partly drawn) | < 0.0039 | 0.031 | 0.015 |
| C/C=C1\NC(=O)[C@H]([C@@H](C)O)NC(=O)c2csc(n2)-c2cc(O)c(-c3nc(C(=O)NC(CNc4ccc(I)cc4)C(N)=O)cs3)nc2-c2csc(n2)[C@@H]2CSC(=O)c3[nH]c4cccc(c4c3C)COC(=O)[C@H](O)C[C@H](NC(=O)c3csc1n3)c1nc(cs1)C(=O)N2 (stereo partly drawn) | < 0.0039 | 0.062 | 0.015 |
| C/C=C1\NC(=O)[C@H]([C@@H](C)O)NC(=O)c2csc(n2)-c2cc(O)c(-c3nc(C(=O)NC(CNc4ccc(C)cc4)C(N)=O)cs3)nc2-c2csc(n2)[C@@H]2CSC(=O)c3[nH]c4cccc(c4c3C)COC(=O)[C@H](O)C[C@H](NC(=O)c3csc1n3)c1nc(cs1)C(=O)N2 (stereo partly drawn) | 0.0078 | 0.062 | 0.031 |
